Test results as given in patent US4443619A, “Chlorocitric acids” (Hoffmann-La Roche Inc., priority 1981, dated 1984).

Columns and labels:
Cholesterol Synthesis = test: Cholesterol synthesis in isolated rat hepatocytes (Example 23); format: cell-based, rat (female Charles River); conditions: 2 mM, 60 min, 37° C., 2000 µM
Procedure: Female Charles River rats were fasted 48 hr, then meal-fed a 1% corn oil, 70% glucose diet for 7 to 14 days from 8 to 11 a.m. The isolated rat hepatocytes were prepared by perfusing the liver in situ. The hepatocytes were incubated in an oscillating water bath at 37° C. for 60 min. […] All incubations were done in triplicate and all experiments were repeated at least twice. […] The contents of the center well were transferred to scintillation counting fluid and ^14 CO2 content was determined. […] The media was then acidified, extracted with hexane, and the extract counted (to determine the rate of lipogenesis). The conversion of ^3 H2 O and [^14 C]alanine into fatty acids or sterols was determined in a PDS/3, Mark II liquid scintillation counting system.

[1] = Body composition of meal-fed rats, 16 day study (Example 20); format: in vivo, Charles River female rats; conditions: 16 days
Procedure: Two month old Charles River female rats (Charles River Breeding Laboratories, Wilmington, Mass.) were individually housed in wire-bottomedcages in a temperature-regulated (22° C.) light-controlled room (12 hr light, 6 a.m. to 6 p.m. and 12 hr dark, 6 p.m. to 6 a.m.). […] (1) control, (2) (-)-threo-chlorocitric acid (1.0 mmoles/kg, 227 mg/kg) administered by oral intubation 30 min before the 3 hr meal, and (3) (-)-threo-chlorocitric acid (1.1 mmoles/kg, 250 mg/kg as a dietary admixture for the 3 hr meal. Treatment was continued for 16 days. After 16 days of treatment, rats were killed by decapitation and blood was removed. […] C. Sullivan, et al, Am. J. Clinical Nutrition, 30 767 (1977). […] Total carcass lipid data are expressed in grams of percentages of carcass weight. An aliquot of saponified carcass extract was neutralized and total carcass nitrogen was determined using the Kjeldahl procedure described in "Hawks" Physiological Chemistry," B. L. Oser, ed., McGraw Book Co., New York, N.Y., 1965, page 1214. Carcass protein data are expressed in grams and percentages of carcass weight.

[2] = Anorectic activities of stereoisomers: 3-day food consumption and body weight gain in meal-fed rats; format: in vivo, Charles River female rats; conditions: 1.32 mmoles/kg oral, 3 days, mean ± S.E.
Procedure: Charles River female rats (Charles River Breeding Laboratories, Wilmington, Mass.), weighing 196 to 210 g, were individually housed in wire-bottomed cages in a temperature-regulated (22° C.) light-controlled room (12 hr light, 6 a.m. to 6 p.m. and 12 hr dark, 6 p.m. to 6 a.m.). Animals were fasted 48 hr, then meal-fed a 70% glucose diet from 8 to 11 a.m. Following 5 to 12 days alimentation on the meal-feeding regimen, rats were dosed with the appropriate compounds orally by intubation 1/2 hr before the 3 hr meal for 3 days. The total food consumption and body weight gained during the 3 day period were determined. The control group consisted of 16 rats, while the experimental group consists of 8 rats.

[3] = Food intake in dogs, pyramiding oral doses (Examples 26 and 27); format: in vivo, beagle dogs
Procedure: Twelve beagle dogs of both sexes weighing 7.6-12.2 kg were used for this test. The test compounds were contained in gelatin capsules for oral administration to two dogs of each sex. The animals were weighed and food consumption calculated daily excluding weekends throughout the test period. Each animal received 800 grams of diet daily consisting of 400 grams of Wayne pellet dog food mixed with 400 ml distilled water. The animals received pyramiding oral doses of the test compound over the three week period. On Monday and Tuesday of the first week the animals were weighed and food consumption was recorded (control). The animals received 3 mg/kg on Wednesday and 10 mg/kg on Friday of the first week. Doses of 30, 100 and 300 mg/kg were administered on Monday, Wednesday and Friday respectively during the second week. A final dose of 1000 mg/kg was administered on Monday of the third week.
Food intake was determined by the procedure by pyramiding doses described in Example 26.

[4] = Anorectic effect in 8 hour meal-fed Zucker rats (Example 17); format: in vivo, lean (Fa/-) and obese (fa/fa)
Procedure: Lean (Fa/-) Zucker rats and obese (fa/fa) Zucker rats of both sexes were individually housed in wire-bottomed cages in a temperature-regulated (22° C.) light-controlled room (12 hr light, 6 a.m. to 6 p.m. and 12 hr dark, 6 p.m. 6 a.m.). The animals were fed a high carbohydrate (70% glucose) diet ad libitum for 13 days, dosed with the indicated compounds by oral intubation for 9 days and allowed to recover for 3 days. The animals were then meal fed from 8 a.m. to 4 p.m. for a period of 5 days, following which they were continued on the same meal schedule for an additional 6 days. During the 6-day period, the animals were administered the indicated compounds by oral intubation at 8 a.m. and 12 p.m. Food cups were weighed immediately after the meal.

[5] = Anorectic activity, body weight and carcass analysis in mammals (summary statements); format: in vivo
[6] = test system: fatty acid and cholesterol syntheses; test: Inhibition of fatty acid, lipid and cholesterol synthesis (summary statements)
[7] = dietary admixture, 1.1 mmoles (250 mg)/kg
[8] = oral intubation, 1.0 mmoles (227 mg)/kg
[9] = test day 20, no dose, (±) one animal, (+) and (-) two animals

O=C(O)C[C@@](O)(C(=O)O)[C@@H](Cl)C(=O)O [(-)-threo-Chlorocitric acid, (-)-threo-chlorocitric acid]
Cholesterol Synthesis, 3H2O converted (Cholesterol Synthesis): 98 % of control | Carcass Lipid, % of carcass weight [1, 7]: 4.01 ± 0.45 % of carcass weight | Carcass Lipid, total [1, 7]: 7.01 ± 0.92 g | Carcass Nitrogen, % of carcass weight [1, 7]: 4.10 ± 0.14 % of carcass weight | Carcass Nitrogen, total [1, 7]: 7.16 ± 0.29 g | Carcass Weight [1, 7]: 176 ± 8 g | Carcass Lipid, % of carcass weight [1, 8]: 1.94 ± 0.13 % of carcass weight | Carcass Lipid, total [1, 8]: 2.74 ± 0.19 g | Carcass Nitrogen, % of carcass weight [1, 8]: 4.27 ± 0.22 % of carcass weight | Carcass Nitrogen, total [1, 8]: 6.57 ± 0.30 g | Carcass Weight [1, 8]: 155 ± 4 g | 3-Day Body Weight Gain [2]: -22.4 ± 2.3 g | 3-Day Food Consumption [2]: 10.5 ± 1.3 g | Food Consumption, % of control [3, 9]: 82 % of control | Food consumption [3, 9]: 607 ± 193 g | Food consumption ([3]; test days -2, -1, before dosing (control period)): 743 ± 54 g | Daily Food Consumption ([4]; Fa/- lean, 0.66 mmoles/kg oral, treatment day 1): 12.5 ± 1.1 g | Daily Food Consumption ([4]; Fa/- lean, 0.66 mmoles/kg oral, treatment day 2): 7.0 ± 0.9 g | Daily Food Consumption ([4]; Fa/- lean, 0.66 mmoles/kg oral, treatment day 3): 7.2 ± 0.7 g | Daily Food Consumption ([4]; Fa/- lean, 0.66 mmoles/kg oral, treatment day 4): 5.4 ± 1.1 g | Daily Food Consumption ([4]; Fa/- lean, 0.66 mmoles/kg oral, treatment day 5): 7.3 ± 1.5 g | Daily Food Consumption ([4]; Fa/- lean, 0.66 mmoles/kg oral, treatment day 6): 7.5 ± 1.3 g | Daily Food Consumption ([4]; Fa/- lean, 0.66 mmoles/kg, day 0 (pretreatment)): 10.8 ± 1.0 g | Daily Food Consumption ([4]; fa/fa obese, 0.66 mmoles/kg oral, treatment day 1): 10.7 ± 0.7 g | Daily Food Consumption ([4]; fa/fa obese, 0.66 mmoles/kg oral, treatment day 2): 5.9 ± 1.5 g | Daily Food Consumption ([4]; fa/fa obese, 0.66 mmoles/kg oral, treatment day 3): 5.8 ± 0.9 g | Daily Food Consumption ([4]; fa/fa obese, 0.66 mmoles/kg oral, treatment day 4): 5.5 ± 0.9 g | Daily Food Consumption ([4]; fa/fa obese, 0.66 mmoles/kg oral, treatment day 5): 4.9 ± 1.0 g | Daily Food Consumption ([4]; fa/fa obese, 0.66 mmoles/kg oral, treatment day 6): 5.1 ± 1.1 g | Daily Food Consumption ([4]; fa/fa obese, 0.66 mmoles/kg, day 0 (pretreatment)): 13.1 ± 1.1 g | anorectic activity as measured by reduction in food consumption ([5]; acute meal-fed assay utilizing three diets and pyramiding dose studies, compared with hydroxycitric acid): significantly more active | carcass analysis: origin of weight loss ([5]; chronic studies): weight loss was due to reduction in body lipids | appetite suppression and reduced body weight gain ([5]; short- and long-term chronic studies, compared with hydroxycitric acid or citric acid): suppressed appetite and reduced body weight gain in mammals more efficaciously than hydroxycitric acid or citric acid | metabolic activity on lipid (fatty acid) and cholesterol syntheses [6]: devoid of metabolic activity as an inhibitor of lipid and cholesterol syntheses
